Key:
[1] = system: cellular pERK in PC-9 cells (EGFR Ex19Del); assay: Potency assay: pERK (AlphaLISA SureFire Ultra p-ERK1/2) in PC-9 cells; format: cell-based; settings: Homo sapiens, PC-9, 1 h, PC-9 cells (EGFR Ex19Del), 1 hour incubation, AlphaLISA SureFire Ultra p-ERK1/2; read-out: SOS1 pERK IC50
[2] = target: SOS1 nucleotide exchange of wild-type KRAS (Homo sapiens (Human), UniProt Q07889); assay: Mode of action assay: inhibition of SOS1 nucleotide exchange activity (TR-FRET); format: biochemical; settings: SOS1 catalytic domain (564-1049), avi-tagged KRAS (1-169), EDA-GTP-DY-647P1; three replicates
SOS1 nucleotide exchange of wild-type KRAS, sequence (Q07889 564-1049): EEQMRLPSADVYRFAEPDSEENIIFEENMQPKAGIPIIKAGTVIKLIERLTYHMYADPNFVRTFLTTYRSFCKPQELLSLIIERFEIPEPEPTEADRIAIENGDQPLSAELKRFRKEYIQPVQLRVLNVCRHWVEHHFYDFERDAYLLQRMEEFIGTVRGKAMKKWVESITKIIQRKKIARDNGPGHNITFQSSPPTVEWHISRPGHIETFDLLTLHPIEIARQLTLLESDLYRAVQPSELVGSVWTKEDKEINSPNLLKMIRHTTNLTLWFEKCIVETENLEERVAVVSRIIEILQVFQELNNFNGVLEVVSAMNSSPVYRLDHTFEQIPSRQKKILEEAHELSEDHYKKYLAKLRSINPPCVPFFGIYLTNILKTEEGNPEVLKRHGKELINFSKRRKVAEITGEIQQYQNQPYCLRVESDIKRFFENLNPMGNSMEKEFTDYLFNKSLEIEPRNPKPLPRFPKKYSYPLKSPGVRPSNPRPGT

[3] = target: SOS1 catalytic domain (residues 564-1049) (Homo sapiens (Human), UniProt Q07889); assay: Potency assay: binding affinity to SOS1 by Surface Plasmon Resonance (SPR); settings: avi-tagged SOS1 catalytic domain immobilized on sensor chip; 1:1 equilibrium binding fit
SOS1 catalytic domain (residues 564-1049), sequence (Q07889 564-1049): as above

Compound	IC50 [1]	IC50 [2]	Kd [3]
Cc1nc(N[C@H](C)c2cccc(C(F)F)c2F)c2cc(C3=CCNCC3)c(=O)n(C)c2n1 [Example 1-9]	666 nM	48.9 nM	74 nM
Cc1nc(N[C@H](C)c2cccc(C(F)F)c2F)c2cc(C3=CCN(C)CC3)c(=O)n(C)c2n1 [Example 1-10]	425 nM	42.9 nM	23.2 nM
CC(=O)N1CC=C(c2cc3c(N[C@H](C)c4cccc(C(F)F)c4C)ncnc3n(C)c2=O)CC1 [Example 1-11]	77 nM	29.3 nM	54.6 nM
CC(=O)N1CC=C(c2cc3c(N[C@H](C)c4cccc(C(C)(F)F)c4)ncnc3n(C)c2=O)CC1 [Example 1-12]	125 nM	34 nM	36.8 nM
C[C@@H](Nc1ncnc2c1cc(C1=C[C@H]3CNC[C@@H](C1)O3)c(=O)n2C)c1cccc(C(F)F)c1F [Example 1-13]	195 nM	19.3 nM	13.8 nM
CC(=O)N1CCC=C(c2cc3c(N[C@H](C)c4cccc(C(F)F)c4F)ncnc3n(C)c2=O)C1 [Example 1-14]	218 nM	53 nM	19 nM
C[C@@H](Nc1ncnc2c1cc(C1=C[C@@H]3CNC[C@H](C1)O3)c(=O)n2C)c1cccc(C(F)F)c1F [Example 1-15]	217 nM	39.8 nM	6.29 nM
C[C@@H](Nc1ncnc2c1cc(C1=CCS(=O)(=O)CC1)c(=O)n2C)c1cccc(C(F)F)c1F [Example 1-17]	50.7 nM	13 nM	21.3 nM
CC(=O)N1CC=C(c2cc3c(N[C@H](C)c4cccc5c4OCC5(F)F)ncnc3n(C)c2=O)CC1 [Example 1-18]	67 nM	12.8 nM	22 nM
CC(=O)N1CC=C(c2cc3c(N[C@H](C)c4cccc(C(F)(F)F)c4C)ncnc3n(C)c2=O)CC1 [Example 1-19]	91 nM	44.3 nM	144 nM
CC(=O)N1CC=C(c2cc3c(N[C@H](C)c4cccc(C(F)F)c4F)nc(C)nc3n(C)c2=O)CC1 [Example 1-21]	173 nM	95.6 nM	137 nM
CC(=O)N1CC=C(c2cc3c(N[C@H](C)c4cccc(C(F)F)c4Cl)ncnc3n(C)c2=O)CC1 [Example 1-23]	70.2 nM	94 nM	122 nM
Cc1nc(N[C@H](C)c2cccc(C(F)F)c2F)c2cc(C3=CCS(=O)(=O)CC3)c(=O)n(C)c2n1 [Example 1-25]	83.7 nM	67.3 nM	101 nM
Cc1nc(N[C@H](C)c2cccc(C(F)F)c2F)c2cc(C3=CCN(C4COC4)CC3)c(=O)n(C)c2n1 [Example 1-26]	260 nM	26.4 nM	61 nM
Cc1nc(N[C@H](C)c2cccc(C(F)F)c2F)c2cc(C3CCOC3)c(=O)n(C)c2n1 (stereo partly drawn) [Example 1-29]	309 nM	129 nM	157 nM
C[C@@H](Nc1ncnc2c1cc(C1CCOCC1)c(=O)n2C)c1cccc(C(F)F)c1F [Example 1-30]	143 nM	45.8 nM	20.1 nM
Cc1nc(N[C@H](C)c2cccc(C(F)F)c2F)c2cc(N3CCNCC3=O)c(=O)n(C)c2n1 [Example 2-4]	906 nM	89.2 nM	153 nM
Cc1nc(N[C@H](C)c2cccc(C(F)F)c2F)c2cc(N3CCN(C)CC3=O)c(=O)n(C)c2n1 [Example 2-5]	824 nM	112 nM	97 nM
C[C@@H](Nc1ncnc2c1cc(C1CN(C)CCO1)c(=O)n2C)c1cccc(C(F)F)c1F (stereo partly drawn) [Example 8-1]	68.4 nM	24.6 nM	24.2 nM
Cc1nc(N[C@H](C)c2cccc(C(F)F)c2F)c2cc(C3CCN(C)CC3)c(=O)n(C)c2n1 [Example 8-2]	265 nM	21.2 nM	64.4 nM
COc1ncccc1-c1cc2c(N[C@H](C)c3cccc(C(F)F)c3F)nc(C)nc2n(C)c1=O [Example 21-9]	335 nM	99 nM	338 nM

Compound	IC50 [1]	IC50 [2]	Kd [3]
COc1ccc(-c2cc3c(N[C@H](C)c4cccc(C(F)F)c4F)ncnc3n(C)c2=O)cc1OC [Example 21-10]	611 nM	532 nM	849 nM
Cc1nc(N[C@H](C)c2cccc(C(F)F)c2F)c2cc(-c3cccnc3OCCO)c(=O)n(C)c2n1 [Example 21-11]	452 nM	173 nM	234 nM
Cc1nc(N[C@H](C)c2cccc(C(F)F)c2F)c2cc(-c3cccn(CCO)c3=O)c(=O)n(C)c2n1 [Example 21-12]	588 nM	123 nM	216 nM
Cc1nc(N[C@H](C)c2cccc(C(F)F)c2F)c2cc(C3=CCS(=N)(=O)CC3)c(=O)n(C)c2n1 (stereo partly drawn) [Example 23-1]	76 nM	78.3 nM	86.2 nM
C[C@@H](Nc1ncnc2c1cc(C(=O)N1CC(F)C1)c(=O)n2C)c1cccc(C(F)F)c1F [Example 26-1]	994 nM	162 nM	285 nM
C[C@@H](Nc1ncnc2c1cc(C(=O)N1CCOCC1)c(=O)n2C)c1cccc(C(F)F)c1F [Example 26-2]	314 nM	102 nM	118 nM
C[C@@H](Nc1ncnc2c1cc(C(=O)N1CC(C)(O)C1)c(=O)n2C)c1cccc(C(F)F)c1F [Example 26-3]	659 nM	407 nM	404 nM
C[C@@H](Nc1ncnc2c1cc(C(=O)N1CCN(C)CC1)c(=O)n2C)c1cccc(C(F)F)c1F [Example 26-7]	186 nM	50.8 nM	77.5 nM
C[C@@H](Nc1ncnc2c1cc(C(=O)N1CCCOCC1)c(=O)n2C)c1cccc(C(F)F)c1F [Example 26-9]	479 nM	122 nM	178 nM
C[C@@H](Nc1ncnc2c1cc(C(=O)N1C3CC1CN(C)C3)c(=O)n2C)c1cccc(C(F)F)c1F [Example 26-11]	251 nM	46.1 nM	97.8 nM
C[C@@H](Nc1ncnc2c1cc(C(=O)N1C3CCC1COC3)c(=O)n2C)c1cccc(C(F)F)c1F [Example 26-12]	861 nM	107 nM	158 nM
C[C@@H](Nc1ncnc2c1cc(C(=O)N(C)c1nccs1)c(=O)n2C)c1cccc(C(F)F)c1F [Example 26-20]	1750 nM	331 nM	1460 nM
C[C@@H]1CN(C(=O)c2cc3c(N[C@H](C)c4cccc(C(F)F)c4F)ncnc3n(C)c2=O)C[C@@H](C)O1 [Example 26-21]	520 nM	24.9 nM	114 nM
C[C@@H]1CN(C(=O)c2cc3c(N[C@H](C)c4cccc(C(F)F)c4F)ncnc3n(C)c2=O)C[C@H](C)O1 [Example 26-22]	2610 nM	113 nM	474 nM
COC[C@H]1CCCN1C(=O)c1cc2c(N[C@H](C)c3cccc(C(F)F)c3F)ncnc2n(C)c1=O [Example 26-24]	794 nM	54.1 nM	160 nM
C[C@@H]1COC[C@H](C)N1C(=O)c1cc2c(N[C@H](C)c3cccc(C(F)F)c3F)ncnc2n(C)c1=O [Example 26-25]	605 nM	106 nM	350 nM
C[C@@H](Nc1ncnc2c1cc(C(=O)N1CCc3ncccc31)c(=O)n2C)c1cccc(C(F)F)c1F [Example 26-26]	228 nM	72.2 nM	269 nM
C[C@@H](Nc1ncnc2c1cc(C(=O)N1CCc3ccncc31)c(=O)n2C)c1cccc(C(F)F)c1F [Example 26-29]	1450 nM	97.8 nM	136 nM
C[C@@H](Nc1ncnc2c1cc(C(=O)N1CCn3cncc3C1)c(=O)n2C)c1cccc(C(F)F)c1F [Example 26-30]	656 nM	86.1 nM	260 nM
C[C@@H](Nc1ncnc2c1cc(C(=O)N1CCn3ccnc3C1)c(=O)n2C)c1cccc(C(F)F)c1F [Example 26-31]	2820 nM	230 nM	322 nM
C[C@@H](Nc1ncnc2c1cc(C(=O)N1CCS(=O)(=O)CC1)c(=O)n2C)c1cccc(C(F)F)c1F [Example 26-38]	392 nM	156 nM	235 nM

From patent US11168102B1, “Bicyclic heteroaryl compounds and uses thereof” (Revolution Medicines, Inc., priority 2019, dated 2021)
